{"source": "patent US12077503B2", "about": "“Substituted cyclic amides and their use as herbicides” (FMC CORPORATION, priority 2015, dated 2024)", "assay_type_in_all_cases": "in vivo", "key": {"Kochia (Kochia scoparia) [1]": {"test_system": "Kochia (Kochia scoparia)", "experiment": "Test A preemergence", "conditions": "Bassia scoparia, pre-emergence, 240 h, 0 to 100 scale where 0 is no effect and 100 is complete control, read-out: Kochia plant response rating", "how_it_was_run": "(§1)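 Seeded soil received test chemicals as a preemergence directed spray, and seedlings at one to two leaves, 2–10 cm tall, received them postemergence, in a non-phytotoxic, surfactant-containing solvent mixture. Pots were held in a greenhouse for approximately 10 d, then rated for injury from 0, no effect, to 100, complete control.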"}, "[2]": {"test_system": "barnyardgrass (Echinochloa crus-galli)", "experiment": "Test A preemergence", "conditions": "Echinochloa crus-galli, pre-emergence, 240 h, 0 to 100 scale where 0 is no effect and 100 is complete control, read-out: Barnyardgrass plant response rating", "how_it_was_run": "as §1"}, "[3]": {"test_system": "giant foxtail (Setaria faberii)", "experiment": "Test A preemergence", "conditions": "Setaria faberi, pre-emergence, 240 h, 0 to 100 scale where 0 is no effect and 100 is complete control, read-out: Foxtail, Giant plant response rating", "how_it_was_run": "as §1"}, "[4]": {"test_system": "pigweed (Amaranthus retroflexus)", "experiment": "Test A preemergence", "conditions": "Amaranthus retroflexus, pre-emergence, 240 h, 0 to 100 scale where 0 is no effect and 100 is complete control, read-out: Pigweed plant response rating"}, "[5]": {"test_system": "ragweed (common ragweed, Ambrosia elatior)", "experiment": "Test A preemergence", "conditions": "Ambrosia artemisiifolia, pre-emergence, 240 h, 0 to 100 scale where 0 is no effect and 100 is complete control, read-out: Ragweed plant response rating", "how_it_was_run": "as §1"}, "[6]": {"test_system": "ryegrass, Italian (Italian ryegrass, Lolium multiflorum)", "experiment": "Test A preemergence", "conditions": "Lolium multiflorum, pre-emergence, 240 h, 0 to 100 scale where 0 is no effect and 100 is complete control, read-out: Ryegrass, Italian plant response rating", "how_it_was_run": "as §1"}, "[7]": {"test_system": "Galium (catchweed bedstraw, Galium aparine)", "experiment": "Test A postemergence", "conditions": "Galium, post-emergence, 240 h, Postemergence, read-out: Galium plant response rating (0 to 100 scale)", "how_it_was_run": "as §1"}, "Kochia (Kochia scoparia) [8]": {"test_system": "Kochia (Kochia scoparia)", "experiment": "Test A postemergence", "conditions": "Bassia scoparia, post-emergence, 240 h, Postemergence, read-out: Kochia plant response rating (0 to 100 scale)", "how_it_was_run": "as §1"}, "[9]": {"test_system": "barnyardgrass (Echinochloa crus-galli)", "experiment": "Test A postemergence", "conditions": "Echinochloa crus-galli, post-emergence, 240 h, Postemergence", "how_it_was_run": "as §1"}, "[10]": {"test_system": "blackgrass (Alopecurus myosuroides)", "experiment": "Test A postemergence", "conditions": "Alopecurus myosuroides, post-emergence, 240 h, Postemergence, read-out: Blackgrass plant response rating (0 to 100 scale)", "how_it_was_run": "as §1"}, "corn (Zea mays)": {"test_system": "corn (Zea mays)", "experiment": "Test A postemergence", "conditions": "Zea mays, post-emergence, 240 h, Postemergence, read-out: Corn plant response rating (0 to 100 scale)", "how_it_was_run": "as §1"}, "[11]": {"test_system": "giant foxtail (Setaria faberii)", "experiment": "Test A postemergence", "conditions": "Setaria faberi, post-emergence, 240 h, Postemergence, read-out: Foxtail, Giant plant response rating (0 to 100 scale)", "how_it_was_run": "as §1"}, "[12]": {"test_system": "pigweed (Amaranthus retroflexus)", "experiment": "Test A postemergence", "conditions": "Amaranthus retroflexus, post-emergence, 240 h, Postemergence, read-out: Pigweed plant response rating (0 to 100 scale)", "how_it_was_run": "as §1"}, "[13]": {"test_system": "ragweed (common ragweed, Ambrosia elatior)", "experiment": "Test A postemergence", "conditions": "Ambrosia artemisiifolia, post-emergence, 240 h, Postemergence, read-out: Ragweed plant response rating (0 to 100 scale)", "how_it_was_run": "as §1"}, "[14]": {"test_system": "ryegrass, Italian (Italian ryegrass, Lolium multiflorum)", "experiment": "Test A postemergence", "conditions": "Lolium multiflorum, post-emergence, 240 h, Postemergence, read-out: Ryegrass, Italian plant response rating (0 to 100 scale)", "how_it_was_run": "as §1"}, "[15]": {"test_system": "wheat (Triticum aestivum)", "experiment": "Test A postemergence", "conditions": "Triticum aestivum, post-emergence, 240 h, Postemergence, read-out: Wheat plant response rating (0 to 100 scale)", "how_it_was_run": "as §1"}, "[16]": {"test_system": "barnyardgrass (Echinochloa crus-galli)", "experiment": "Test B flooded paddy test", "conditions": "Echinochloa crus-galli, 250 g ai/ha, Flood; 0 to 100 scale where 0 is no effect and 100 is complete control; read-out: Barnyardgrass plant response rating", "how_it_was_run": "(§2)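 Flooding to 3 cm over soil accompanied treatment, which consisted of adding compound to the standing water around 2-leaf plants; depth was then maintained. Visual assessment versus controls followed at 13 to 15 d (scale 0–100, 0 meaning no effect).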"}, "[17]": {"test_system": "ducksalad (Heteranthera limosa)", "experiment": "Test B flooded paddy test", "conditions": "Heteranthera limosa, 250 g ai/ha, Flood; 0 to 100 scale where 0 is no effect and 100 is complete control; read-out: Ducksalad plant response rating", "how_it_was_run": "as §2"}, "rice (Oryra sativa)": {"test_system": "rice (Oryra sativa)", "experiment": "Test B flooded paddy test", "conditions": "Oryza sativa, 250 g ai/ha, Flood; 0 to 100 scale where 0 is no effect and 100 is complete control; read-out: Rice plant response rating", "how_it_was_run": "as §2"}, "[18]": {"test_system": "sedge, umbrella (small-flower umbrella sedge, Cyperus difformis)", "experiment": "Test B flooded paddy test", "conditions": "Cyperus difformis, 250 g ai/ha, Flood; 0 to 100 scale where 0 is no effect and 100 is complete control; read-out: Sedge, Umbrella plant response rating", "how_it_was_run": "as §2"}, "[19]": {"conditions": "125 g ai/ha, preemergence, visual injury rating, approximately 10 d"}, "[20]": {"conditions": "125 g ai/ha, visual rating about 10 d after treatment"}, "[21]": {"conditions": "31 g ai/ha, 0 is no effect, 100 is complete control"}}, "data": [{"smiles": "CN1C[C@H](c2ccccc2)[C@@H](C(=O)Nc2cccc(F)c2F)C1=O", "note": "[Compound 1282]", "values": [{"measurement": "pest or weed control at 31 g/ha", "setting": "Kochia (Kochia scoparia) [1]; 31 g ai/ha, Preemergence", "value": 30, "unit": "%"}, {"measurement": "pest or weed control at 125 g/ha", "setting": "Kochia (Kochia scoparia) [1]; [19]", "value": 70, "unit": "%"}, {"measurement": "pest or weed control at 31 g/ha", "setting": "[2]; 31 g ai/ha, Preemergence", "value": 100, "unit": "%"}, {"measurement": "pest or weed control at 125 g/ha", "setting": "[2]; [19]", "value": 100, "unit": "%"}, {"measurement": "pest or weed control at 31 g/ha", "setting": "[3]; 31 g ai/ha, Preemergence", "value": 100, "unit": "%"}, {"measurement": "pest or weed control at 125 g/ha", "setting": "[3]; [19]", "value": 100, "unit": "%"}, {"measurement": "pest or weed control at 31 g/ha", "setting": "[4]; 31 g ai/ha, Preemergence", "value": 60, "unit": "%"}, {"measurement": "pest or weed control at 125 g/ha", "setting": "[4]; [19]", "value": 80, "unit": "%"}, {"measurement": "pest or weed control at 31 g/ha", "setting": "[5]; 31 g ai/ha, Preemergence", "value": 0, "unit": "%"}, {"measurement": "pest or weed control at 125 g/ha", "setting": "[5]; [19]", "value": 90, "unit": "%"}, {"measurement": "pest or weed control at 31 g/ha", "setting": "[6]; 31 g ai/ha, Preemergence", "value": 30, "unit": "%"}, {"measurement": "pest or weed control at 125 g/ha", "setting": "[6]; [19]", "value": 70, "unit": "%"}, {"measurement": "pest or weed control at 125 g/ha", "setting": "[7]; [20]", "value": 70, "unit": "%"}, {"measurement": "pest or weed control at 31 g/ha", "setting": "[7]; [21]", "value": 40, "unit": "%"}, {"measurement": "pest or weed control at 125 g/ha", "setting": "Kochia (Kochia scoparia) [8]; [20]", "value": 60, "unit": "%"}, {"measurement": "pest or weed control at 31 g/ha", "setting": "Kochia (Kochia scoparia) [8]; [21]", "value": 0, "unit": "%"}, {"measurement": "pest or weed control at 125 g/ha", "setting": "[9]; 125 g ai/ha, visual rating about 10 d after treatment, read-out: Barnyardgrass plant response rating (0 to 100 scale, 0 no effect, 100 complete control)", "value": 100, "unit": "%"}, {"measurement": "pest or weed control at 31 g/ha", "setting": "[9]; 31 g ai/ha, 0 is no effect, 100 is complete control, read-out: Barnyardgrass plant response rating (0 to 100 scale)", "value": 90, "unit": "%"}, {"measurement": "pest or weed control at 125 g/ha", "setting": "[10]; [20]", "value": 0, "unit": "%"}, {"measurement": "pest or weed control at 31 g/ha", "setting": "[10]; [21]", "value": 0, "unit": "%"}, {"measurement": "plant injury at 125 g/ha", "setting": "corn (Zea mays); [20]", "value": 30, "unit": "%"}, {"measurement": "plant injury at 31 g/ha", "setting": "corn (Zea mays); [21]", "value": 0, "unit": "%"}, {"measurement": "pest or weed control at 125 g/ha", "setting": "[11]; [20]", "value": 80, "unit": "%"}, {"measurement": "pest or weed control at 31 g/ha", "setting": "[11]; [21]", "value": 80, "unit": "%"}, {"measurement": "pest or weed control at 125 g/ha", "setting": "[12]; [20]", "value": 20, "unit": "%"}, {"measurement": "pest or weed control at 31 g/ha", "setting": "[12]; [21]", "value": 0, "unit": "%"}, {"measurement": "pest or weed control at 125 g/ha", "setting": "[13]; [20]", "value": 40, "unit": "%"}, {"measurement": "pest or weed control at 31 g/ha", "setting": "[13]; [21]", "value": 0, "unit": "%"}, {"measurement": "pest or weed control at 125 g/ha", "setting": "[14]; [20]", "value": 40, "unit": "%"}, {"measurement": "pest or weed control at 31 g/ha", "setting": "[14]; [21]", "value": 0, "unit": "%"}, {"measurement": "plant injury at 125 g/ha", "setting": "[15]; [20]", "value": 50, "unit": "%"}, {"measurement": "plant injury at 31 g/ha", "setting": "[15]; [21]", "value": 0, "unit": "%"}, {"measurement": "pest or weed control at 250 g/ha", "setting": "[16]", "value": 90, "unit": "%"}, {"measurement": "pest or weed control at 250 g/ha", "setting": "[17]", "value": 100, "unit": "%"}, {"measurement": "pest or weed control at 250 g/ha", "setting": "rice (Oryra sativa)", "value": 30, "unit": "%"}, {"measurement": "pest or weed control at 250 g/ha", "setting": "[18]", "value": 0, "unit": "%"}]}]}
